Experimental data reported in paper PMC7503713, “GANT61 Reduces Hedgehog Molecule (GLI1) Expression and Promotes Apoptosis in Metastatic Oral Squamous Cell Carcinoma Cells” (International Journal of Molecular Sciences, 2020).

How the values were obtained:
Gli1 protein = test: Western blot of HH pathway proteins in HSC3 cells, Gli1; format: cell-based, human; conditions: 24 h
Method: (§1) After culturing, HSC3 cells were washed with PBS and denatured by using cell lysis buffer containing 50 mM Tris-HCl (pH 7.4), 1% Triton X-100, 150 mM NaCl, 0.5 mM EGTA, 0.5 EDTA mM, and an anti-protease cocktail (Complete Pro-inhibitor Cocktail Tablets, Roche, Basel, Switzerland). Protein extracts (50 μg) were separated by SDS-PAGE and transferred to Hybond-C Extra (GE Healthcare, Chicago, IL, USA) nitrocellulose membranes. The following antibodies were used in the Western blot assay: mouse […] against Sonic Hedgehog (1:500, Clone 5 H4, Cat. number NBP2-22126, Novus Biologicals, Centennial, CO, USA), rabbit polyclonal against Gli1 (1:500, Novus Biologicals, Cat. number NB600-600), rabbit polyclonal against Patched 1 (1:500, Novus Biologicals, Cat.number NB200-118), and rabbit polyclonal against Smoothened (1:1000, Cat. number AB72130, Abcam, Cambridge, MA, USA). The secondary antibodies were anti-mouse IgG (1:10,000, Santa Cruz Biotechnology, Santa Cruz, CA, USA) and anti-rabbit IgG (1:10,000, GE Healthcare, Chicago, IL, USA). Signal detection was performed by using an ECL + Chemiluminescence Detection System (PerkinElmer, Villebon sur-Yvette, France). The antibody actin (1:10000, Cat. Number15 G5 A11/E2, Invitrogen, Carlsbad, CA, USA) was selected as an endogenous control for analysis of HH pathway component expression in HSC3 cells. […]

NOF = test: alamarBlue cytotoxicity assay, normal oral fibroblasts NOF; format: cell-based; conditions: Homo sapiens, Fibroblast, 72 h of incubation
Method: For comparative analysis, primary cultures of normal oral fibroblasts (NOF) were isolated from fragments of healthy patient gingiva, using the same technique previously described for CAFs above, and then maintained in culture for up to 15 passages.
(§2) To assess the cytotoxicity of the GLI inhibitor GANT61 (Sigma-Aldrich, St. Louis, MO, USA) in tumor and non-tumor cell lines, an alamarBlue assay (Sigma-Aldrich Chemical Co, St. Louis, MO, USA) was performed after 72 h of exposure to the inhibitor, as described by Ahmed et al., 1994 [46]. Cells were distributed on 96-well plates at a density of 7 × 10^4 cells/mL for adhered cells, and 3 × 10^5 cells/mL for cells in suspension. All tested compounds were dissolved in DMSO, added to wells containing 100 µL of cells in complete medium, and then incubated for 72 h. […] Absorbance was measured at 570 nm (reduced) and 595 nm (oxidized) wavelengths, using a Spectramax 190 plate reader (Molecular Devices; Sunnyvale, CA, USA).
(§3) Statistical analyses were performed, using GraphPad Prism v. […] Data were analyzed according to distribution along the normal Gaussian curve. […] Differences between groups resulting from in vitro assays were evaluated by ANOVA (analysis of variance) testing, followed by the Student–Newman–Keuls test. […]

AGP01 = test: alamarBlue cytotoxicity assay, AGP01; format: cell-based, human; conditions: 72 h of incubation
Method: as §2, with “h. Eight concentrations of GANT61 (0.19 to 50 µg/mL), Doxorubicin (Laboratory IMA S.A.I.C., Buenos Aires, Argentina), and 5-Fluorouracil (5-FU, Sigma-Aldrich, St. Louis, MO, USA), both used as positive controls at concentrations ranging from 0.03 to 5 µg/mL, were added to respective wells.” for “h.”
as §3

PTCH1 protein = test: Western blot of HH pathway proteins in HSC3 cells, PTCH1; format: cell-based, human; conditions: HSC3, 18 and 36 µM, 24 h
Method: as §1

SCC15 = test: alamarBlue cytotoxicity assay, SCC15; format: cell-based, human; conditions: 72 h of incubation
Method: as §2, with “h. Eight concentrations of GANT61 (0.19 to 50 µg/mL), Doxorubicin (Laboratory IMA S.A.I.C., Buenos Aires, Argentina), and 5-Fluorouracil (5-FU, Sigma-Aldrich, St. Louis, MO, USA), both used as positive controls at concentrations ranging from 0.03 to 5 µg/mL, were added to respective wells.” for “h.”
as §3

SCC25 = test: alamarBlue cytotoxicity assay, SCC25; format: cell-based, human; conditions: 72 h of incubation
Method: as §2, with “h. Eight concentrations of GANT61 (0.19 to 50 µg/mL), Doxorubicin (Laboratory IMA S.A.I.C., Buenos Aires, Argentina), and 5-Fluorouracil (5-FU, Sigma-Aldrich, St. Louis, MO, USA), both used as positive controls at concentrations ranging from 0.03 to 5 µg/mL, were added to respective wells.” for “h.”
as §3

APC02 = test: alamarBlue cytotoxicity assay, APC02; format: cell-based, human; conditions: 72 h of incubation
Method: as §2, with “h. Eight concentrations of GANT61 (0.19 to 50 µg/mL), Doxorubicin (Laboratory IMA S.A.I.C., Buenos Aires, Argentina), and 5-Fluorouracil (5-FU, Sigma-Aldrich, St. Louis, MO, USA), both used as positive controls at concentrations ranging from 0.03 to 5 µg/mL, were added to respective wells.” for “h.”
as §3

GLI2 mRNA = test: qPCR of HH pathway gene expression in HSC3 cells, GLI2; format: cell-based, human; conditions: HSC3, 18 and 36 µM, 12 h, not significant
Method: For total RNA isolation, HSC3 cells were plated on 6-well plates, at a density of 0.7 × 10^5 cells/mL (5 mL/well volume), and incubated overnight, followed by treatment with the GLI inhibitor for 12 h at both concentrations (18 and 36 µM).
All experiments were carried out under DNAse/RNAse-free conditions. Silica microcolumns were used for RNA extraction, using an RNeasy Plus Mini Kit (QIAGEN, Hilden, Germany). Extracted RNA was analyzed for quantity and purity, using a NanoDrop®® 1000 spectrophotometer (Thermo Fisher Scientific, Waltham, MA, USA).
Reverse transcription was performed by using Superscript VILO™ transcriptase enzyme (Invitrogen, Carlsbad, CA, USA). The cDNA samples were stored at −20 °C, until the time of use.
HH pathway component expression was evaluated in cells treated or not with GANT61 by qPCR, using TaqMan Gene Expression Assays^TM inventoried for the PTCH1 (Hs00181117_m1), GLI1 (Hs01110766_m1), GLI2 (Hs01119974_m1), and GLI3 (Hs00609233_m1) genes, as well as for B2 M (Hs99999907_m1). […]
Following amplification and dissociation runs, quantification cycle (Cq) values were obtained by using the ViiA7^TM System Operational Program (AppliedByosistems, Foster City, CA, USA). For relative quantification, the comparative method (2−∆∆Cq) described by Livak and Schmittgen, 2001 was used. […]

For O=c1[nH]cc(F)c(=O)[nH]1 [5-FU, 5-fluorouracil], which Gli1 protein levels (Gli1 protein; HSC3, 17 µM) is on record?
The Gli1 protein levels was “reduce Gli1 protein levels”.

And the IC50 (NOF)?
The IC50 was 39.6 µM.

Which results are given for CN(C)c1ccccc1CN1CCCN(Cc2ccccc2N(C)C)C1c1ccncc1 [GANT61]?
Gli1 protein expression (Gli1 protein; HSC3, 18 and 36 µM): reduced levels; IC50 (AGP01): > 116 µM; PTCH1 protein expression (PTCH1 protein): reduced levels; IC50 (SCC15): 72.7 µM; IC50 (SCC25): 53.3 µM; IC50 (APC02): > 116 µM; mRNA expression of GLI2 (GLI2 mRNA): Reductions in mRNA expression
